Paper PMC13289212, “HIVIL: A human in vitro inflammatory liver model recapitulates immune-associated drug effects with high predictivity” (NAM journal, 2025)
pIC50: −log10 of the molar value. Like-named read-outs stand apart in the source and are kept apart here.

How the values were obtained:
[1] = binary classification by human hepatotoxicity; ref Thakkar et al. 2020; cited from earlier work
[2] = tested on: HIVIL (iKCs co-cultured with iHeps); test: AlamarBlue cell viability in HIVIL
Protocol: (§1) Stock solutions of drugs were prepared in dimethyl sulfoxide (DMSO) and dissolved in medium prior to use. […] For these two drugs, the highest DMSO concentration was 1 %. Supernatant was collected at 48 hr for measurement of cytokines, and remaining cells were subjected to viability assay prior to lysis for RNA extraction.

IL-6 [3] = test: IL-6 production of iKC mono-culture; format: cell-based, human; conditions: result in words
Protocol: (§2) Enzyme-linked immunosorbent assay (ELISA) for measurement of cytokines: Interleukin-6 (IL-6), interleukin-10 (IL-10) and tumor necrosis factor alpha (TNFα) levels in the media were measured using the corresponding human-based ELISA kits (Abcam, Cambridge, United Kingdom) according to manufacturer’s instructions. The cytokine production from dosed cells was normalized with the viability value from the same well. The normalized cytokine level upon drug treatments was further presented as percentage of DMSO+LPS. Normalization to viability per well ensures that any changes in cytokines are not due to changes in cell numbers upon drug treatment and normalization to DMSO+LPS allows better comparison between different batches of experiments. This normalization approach has been used in previous studies (Rose et al. 2016).

[4] = Cammett et al. 2009, Mendes et al. 2014, cited from earlier work
TNFα [5] = test: TNFα ELISA in HIVIL (iKCs co-cultured with iHeps, LPS, 48 hr); format: cell-based, human
Excerpt: (§3) Human iPSC cell line iPS (IMR90)-4 was purchased from WiCell Research Institute (Madison, WI), and maintained with a feeder-free method according to the instruction from […] Technologies (Vancouver, BC, Canada). The protocol of differentiation towards iKCs and iHeps as described previously with slight modification ([Tasnim et al., 2019]; [Cai et al., 2012]), respectively. […] More details are provided in Supplementary Methods. After differentiation, iKCs was harvested using 0.05 % trypsin-EDTA (Gibco, Waltham, Massachusetts, USA), while iHeps were dissociated with TrypLE^TM (Gibco). iHep suspension was further filtered through a 40 µm cell strainer to remove extracellular matrix clumps. Cell suspension was centrifuged at 1000 rpm for 5 min. For co-culture set up, tissue culture plates were coated with Rat tail collagen I (Gibco) diluted 100-fold in 0.02 N acetic acid, and incubated at 37 °C for 1 h and washed 3 times with PBS. According to the protocol optimized by [Tasnim et al. (2019)], iKCs was firstly seeded at a density of 14,000 per well on 96-well plate with Advanced DMEM (plus supplements) containing 5 % FBS. On the following day, iHeps were added at a density of 35,000 per well in Williams’ Medium E (plus supplements) (iHep: iKCs ratio = 2.5: 1). This reflects the physiological ratio of these cells in vivo under inflammatory conditions ([Tasnim et al., 2021]). Fresh media containing drugs was applied to co-cultures the next day. 50,000 cells were seeded to establish iHeps monoculture. THP-1 cells were kindly obtained from Dr. Eliza Fong and cultured as described by [Zeng et al. (2015)]. Details provided in Supplementary Methods.
as §1
as §2, with “Normalization to viability per well ensures that any changes in cytokines are not due to changes in cell numbers upon drug treatment and normalization to DMSO+LPS allows better comparison between different batches of experiments.” left out

TNFα [6] = conditions: ref Shaw et al. 2010; Zou et al. 2009; Bekker et al. 2012; Gandhi et al. 2013; Heidari et al. 2019; cited from earlier work
[7] = FDA-labeling information; ref Chen et al. 2016; cited from earlier work
IL-6 [8] = test: IL-6 ELISA in HIVIL (iKCs co-cultured with iHeps, LPS, 48 hr); format: cell-based, human; conditions: HIVIL; for IL-6 response: result in words
Excerpt: as §3, §1
as §2, with “Normalization to viability per well ensures that any changes in cytokines are not due to changes in cell numbers upon drug treatment and normalization to DMSO+LPS allows better comparison between different batches of experiments.” left out

iKCs mono-culture = test: Cell viability of iKCs mono-culture; parameters: dose or concentration left out as unconfirmed
Protocol: (§4) Cell viability assays: Cell viability was examined with AlamarBlue^TM cell viability assay (Thermo Fisher Scientific Inc.) according to manufacturer’s instructions. Briefly, cells were exposed to AlamarBlue^TM working solution, which was diluted 10-fold using PBS containing 2 mg/mL of glucose, for 1 hour. Color change in the solution was measured using fluorescence (Ex: 530nm, Em: 590nm) in Tecan Microplate Reader M1000 PRO. The viability of dosed cells was presented as percentage of the corresponding vehicle control.

iHeps = test: RNA-Seq of iHeps from mono-culture and HIVIL; format: cell-based, human; conditions: regardless of culture conditions, result in words
Excerpt: Subsequent analyses compared gene fold-changes of treated samples against their respective vehicle controls: "m" and "c" indicate mono- and co-culture, and "–" and "+" represent the absence or presence of LPS. […] However, this is only applicable for co-cultures where downstream effects can be traced back to cytokine changes, and not in monocultures where significant upstream cytokine changes are not observed.
RNA extraction was done using TRIzol and analyzed on a Tapestation 4200 to determine RNA Integrity Number (RIN). Only samples with RIN > 8 were sequenced. Illumina Stranded mRNA multiplexing was done with unique 96 dual indices, and all samples sequenced on the same lane of NovaSeq 6000 S4 flowcell. Data normalization was performed using DESeq2 v1.32.0 ([Love et al., 2014]) on the R programming language v4.1.0 ([R Core Team, 2021]; [R Team, 2021]). Gene enrichment analysis was done with fgsea v1.18 ([Korotkevich et al., 2021]) with gene sets downloaded from MSigDB and KEGG pathway visualization done via pathview v1.32 ([Kanehisa et al., 2021]; [Luo and Brouwer, 2013]). Other plots were produced using ggplot2 v3.3.5 and scatterplot3d v0.3-41 ([Ligges and Maechler, 2003]). The RNA-Seq dataset has been deposited in NCBI under accession number GSE189320.
RNA seq and analysis: After 48 hr of drug treatment, iHeps cultured in mono-culture and HIVIL were both subjected to TrypLE^TM dissociation, and subsequently sorted with magnetic separation with the CD163 Microbead kit (Miltenyi Biotec, Bergisch Gladbach, Germany) to obtain only iHeps. Flow-through was collected, pelleted down and snap-frozen in liquid nitrogen, before storage at -80°C. Lysates were sent to the Genome Research Informatics and Data Science platform (Agency for Science, Technology and Research, Singapore). RNA extraction was done using TRIzol and analyzed on a Tapestation 4200 to determine RNA Integrity Number (RIN). All sequenced samples included for further analysis had RIN > 8. Illumina Stranded mRNA multiplexing was done with unique 96 dual indices, and all samples sequenced on the same lane of NovaSeq 6000 S4 flowcell. Sequenced reads were trimmed for adaptor sequence using Trim Galore v0.6.4, then aligned to human genome build GRCh38 using STAR_2.6.1d. Aligned reads are summarized into count matrices using featureCounts v1.6.4 with the gene annotation file from GENCODE v37.
Data normalization was performed using DESeq2 v1.32.0 (Love et al. 2014) on the R programming language v4.1.0 (Core Team 2021; Team 2021). Gene enrichment analysis was done with fgsea v1.18 (Korotkevich et al. 2021) with gene sets downloaded from MSigDB and KEGG pathway visualization done via pathview v1.32 (Kanehisa et al. 2021; Luo and Brouwer 2013). Other plots were produced using ggplot2 v3.3.5 and scatterplot3d v0.3-41 (Ligges and Maechler 2003). The RNA-Seq dataset has been deposited in NCBI under accession number GSE189320.

iPSC(F4)-derived HIVIL = test: Cell viability in iPSC(F4)-derived HIVIL; format: cell-based, human; conditions: result in words
Protocol: as §4

IL-6 [9] = test: IL-6 ELISA in iPSC(F4)-derived HIVIL; format: cell-based, human; conditions: result in words
Protocol: as §2

IL-6 [10] = tested on: IL-6; parameters: method as in ref Hassan et al. 2016; Giustarini et al. 2019; Higuchi et al. 2012; Dik et al. 2018; conditions: ref Hassan et al. 2016; Giustarini et al. 2019; Higuchi et al. 2012; Dik et al. 2018; cited from earlier work
NF-κB = tested on: NF-κB; parameters: method as in Wahl et al. 1998; conditions: ref Wahl et al. 1998; cited from earlier work
[11] = ref in each cell: Ademisoye et al. 2018, Xu et al. 2008, Agabeyoglu and Incecayir 2009, Rojanasthien et al. 2007, Reunanen et al. 1992, Li et al. 2002, Hong-mei et al. 2013, Bareggi et al. 1987, Jiang et al. 2008

CN(C)CCCN1c2ccccc2Sc2ccc(Cl)cc21 [CPZ, Chlorpromazine]
DILIst [1]: 1 | pIC50 ([2]; Homo sapiens, 48 h, read-out: IC50: viability): 4.46 | IL-6 / cytokine production in iKC mono-culture (IL-6 [3]): higher than that in the HIVIL model | Cmax [4, 11]: 800 nM | Cmax ([4]; ref in each cell: Xu et al. 2008): 800 nM | dose at which TNFα induction was observed (TNFα [5]): 25 µM | Reported in-vivo (murine) responses: TNFα (TNFα [6]): TNFα↑ (Gandhi et al. 2013) | DILIrank [7]: less | group by drug-dependent IL-6 production (IL-6 [8]): dose-dependent inhibition | pIC50 (IL-6 [8]; Homo sapiens, LPS, 48 hr): 4.89 | decrease in viability in iKCs (iKCs mono-culture): 50%

C[C@H]1COc2c(N3CCN(C)CC3)c(F)cc3c(=O)c(C(=O)O)cn1c23 [LVX, levofloxacin]
DILIst [1]: 1 | change in cell viability ([2]; HIVIL, result in words): did not cause any change | viability profiles among iHeps, iKCs and HIVIL ([2]; comparison of mono-cultures and co-culture): similar | IL-6 transcription in iHeps (iHeps): remained unchanged | cell viability (iPSC(F4)-derived HIVIL): did not influence | DILIrank [7]: most | group by drug-dependent IL-6 production (IL-6 [8]): no dose-dependent changes | IL-6 response (IL-6 [8]): did not cause any change | IL-6 production (IL-6 [9]): did not influence

O=C(O)c1cc(/N=N/c2ccc(S(=O)(=O)Nc3ccccn3)cc2)ccc1O [SSZ, sulfasalazine]
Reported in-vivo (murine) responses: IL-6 (IL-6 [10]): IL-6↓ (Dik et al. 2018) | Cmax [4, 11]: 17600 nM | Reported human responses: NF-κB (NF-κB): NF-κB inhibitor (Wahl et al. 1998) | group by drug-dependent IL-6 production (IL-6 [8]): no dose-dependent changes | IL-6 response (IL-6 [8]): no change
